Measurements reported in publication PMC5146859, “Phase 1/2 study of pacritinib, a next generation JAK2/FLT3 inhibitor, in myelofibrosis or other myeloid malignancies” (Journal of Hematology & Oncology, 2016).
Like-named read-outs stand apart in the source and are kept apart here.

How the values were obtained:
[1] = Phase 1 pharmacokinetics (liquid chromatography/tandem mass spectrometry); type: in vivo, human; parameters: C24h, Mean / C24h, Median: unit not given here; details: for Cmax / Tmax / AUC(0-t): human, in vivo
Protocol: In phase 1, full PK sampling was performed on days 1 and 15 of cycle 1 and day 1 of cycle 2. Trough PK samples were drawn prior to dosing on days 8 and 22 of cycle 1 and at 24, 48, and 72 h after dosing on day 25 of cycle 1. A sample was collected before dosing on day 1 of cycles 4, 7, and 10. Pacritinib concentrations were determined using a validated liquid chromatography/tandem mass spectrometry method. An analysis of clinical exposures from the HCl and citrate salts of pacritinib was performed comparing Day 1 PK data from 12 patients who received the HCl salt formulation in the 200 mg cohorts of this study and two other pacritinib studies [NCT00741871 and NCT00745550]) with six patients in the 200 mg cohort of this study who received the citrate salt formulation.

[2] = test system: patients with advanced myeloid malignancies (MF, AML); experiment: Phase 1 clinical benefit rate (IWG criteria); type: in vivo, human
Protocol: At screening/baseline, patients underwent a medical history, physical examination, vital sign assessment, ECOG PS assessment, electrocardiogram, and assessment of hematologic parameters and blood chemistry. Hematology/blood chemistry, physical examinations, and vital sign assessments were performed throughout treatment. Toxicity was assessed using the National Cancer Institute Common Terminology Criteria for Adverse Events (NCIC-CTCAE), version 3.0, with relationship to treatment assigned by the investigator and were recorded from the first dose of pacritinib until 30 days after the last dose. Bone marrow biopsy and/or aspirate samples were drawn at baseline, on day 1 of cycle 4 and cycle 10, as clinically indicated, and at the termination visit. Disease response and progression were determined using the relevant International Working Group (IWG) criteria. The primary objective of phase 1 was to establish the MTD of pacritinib in patients with advanced myeloid malignancies, defined as the highest dose level at which no more than one out of six patients in the cohort experienced a DLT during cycle 1 ([…]) of therapy. […] Secondary objectives in phase 1 of the study included safety and PK analysis. Clinical benefit rate was assessed as an exploratory endpoint, defined as the proportion of patients who experienced a complete response, partial response, clinical improvement, or stable disease (SD) during the study.

[3] = phase 1, Day 1, 200 mg (HCl and citrate salt cohorts pooled)
[4] = phase 1, Day 15, 200 mg (HCl and citrate salt cohorts pooled)

Compound: C1=C/COCc2cc(ccc2OCCN2CCCC2)Nc2nccc(n2)-c2cccc(c2)COC/1 [pacritinib, 11-(2-pyrrolidin-1-yl-ethoxy)-14,19-dioxa-5,7,26-triaza-tetracyclo[19.3.1.1(2,6). 1(8,12)]heptacosa-1(25),2(26),3,5,8,10,12(27),16,21,23-decaene]
- Cmax ([1]; oral, 600 mg, phase 1, Day 15, 600 mg, read-out: Cmax, Mean): 9220 ng/mL
- Cmax ([1]; oral, 600 mg, phase 1, Day 15, 600 mg, read-out: Cmax, Median): 8560 ng/mL
- Tmax ([1]; oral, phase 1, day 1, 100-600 mg, read-out: Median time to maximum concentration (Tmax), range over dose cohorts): 4 to 8 h
- Tmax ([1]; oral, phase 1, day 15, 100-600 mg, read-out: Median time to maximum concentration (Tmax), range over dose cohorts): 2.5 to 5 h
- AUC(0-t) ([1]; po, 200 mg, phase 1, Day 1, 200 mg (HCl and citrate salt cohorts pooled), read-out: AUC0-24h, Mean): 93.3 µg·h/mL
- AUC(0-t) ([1]; po, 200 mg, phase 1, Day 1, 200 mg (HCl and citrate salt cohorts pooled), read-out: AUC0-24h, Median): 87.3 µg·h/mL
- Cmax ([1]; po, 200 mg, phase 1, Day 1, 200 mg (HCl and citrate salt cohorts pooled), read-out: Cmax, Mean): 5000 ng/mL
- Cmax ([1]; po, 200 mg, phase 1, Day 1, 200 mg (HCl and citrate salt cohorts pooled), read-out: Cmax, Median): 4570 ng/mL
- Tmax ([1]; po, 200 mg, phase 1, Day 1, 200 mg (HCl and citrate salt cohorts pooled), read-out: Tmax, Median): 5 h
- AUC(0-t) ([1]; po, 200 mg, phase 1, Day 15, 200 mg (HCl and citrate salt cohorts pooled), read-out: AUC0-24h, Mean): 125 µg·h/mL
- AUC(0-t) ([1]; po, 200 mg, phase 1, Day 15, 200 mg (HCl and citrate salt cohorts pooled), read-out: AUC0-24h, Median): 130 µg·h/mL
- Cmax ([1]; po, 200 mg, phase 1, Day 15, 200 mg (HCl and citrate salt cohorts pooled), read-out: Cmax, Mean): 6700 ng/mL
- Cmax ([1]; po, 200 mg, phase 1, Day 15, 200 mg (HCl and citrate salt cohorts pooled), read-out: Cmax, Median): 6450 ng/mL
- Tmax ([1]; po, 200 mg, phase 1, Day 15, 200 mg (HCl and citrate salt cohorts pooled), read-out: Tmax, Median): 5 h
- C24h, Mean ([1]; phase 1, Day 1, 100 mg): 2440
- C24h, Median ([1]; phase 1, Day 1, 100 mg): 2318
- C24h, Mean ([1]; phase 1, Day 1, 150 mg): 3113
- C24h, Median ([1]; phase 1, Day 1, 150 mg): 2316
- C24h, Mean [1, 3]: 3921
- C24h, Median [1, 3]: 3026
- C24h, Mean ([1]; phase 1, Day 1, 300 mg): 4213
- C24h, Median ([1]; phase 1, Day 1, 300 mg): 3528
- C24h, Mean ([1]; phase 1, Day 1, 400 mg): 5644
- C24h, Median ([1]; phase 1, Day 1, 400 mg): 4725
- C24h, Mean ([1]; phase 1, Day 1, 500 mg): 5899
- C24h, Median ([1]; phase 1, Day 1, 500 mg): 4417
- C24h, Mean ([1]; phase 1, Day 1, 600 mg): 5093
- C24h, Median ([1]; phase 1, Day 1, 600 mg): 4136
- C24h, Mean ([1]; phase 1, Day 15, 100 mg): 3945
- C24h, Median ([1]; phase 1, Day 15, 100 mg): 4322
- C24h, Mean ([1]; phase 1, Day 15, 150 mg): 5428
- C24h, Median ([1]; phase 1, Day 15, 150 mg): 5026
- C24h, Mean [1, 4]: 4852
- C24h, Median [1, 4]: 4993
- C24h, Mean ([1]; phase 1, Day 15, 300 mg): 4965
- C24h, Median ([1]; phase 1, Day 15, 300 mg): 4850
- C24h, Mean ([1]; phase 1, Day 15, 400 mg): 8429
- C24h, Median ([1]; phase 1, Day 15, 400 mg): 10168
- C24h, Mean ([1]; phase 1, Day 15, 500 mg): 6550
- C24h, Median ([1]; phase 1, Day 15, 500 mg): 5685
- C24h, Mean ([1]; phase 1, Day 15, 600 mg): 6439
- C24h, Median ([1]; phase 1, Day 15, 600 mg): 5417
- Between-patient coefficient of variation for Cmax and AUC0–24 ([1]; phase 1, day 1): 25 to 63%
- Dose proportionality of exposure (Cmax, C24, AUC0–24) ([1]; phase 1, day 1): less than dose-proportional
- Between-patient coefficient of variation for Cmax and AUC0–24 ([1]; phase 1, day 15): 20–54%
- Dose dependence of exposure (Cmax, C24, AUC0–24) ([1]; phase 1, day 15): plateau above the 400 mg dose level
- Dose–response correlation of clinical benefit ([2]; phase 1): No clear dose–response correlation was observed
- Overall clinical benefit rate ([2]; phase 1, n = 43): 86.0%
- Patients achieving clinical improvement ([2]; phase 1, n = 43): 13 patients
- Patients having stable disease ([2]; phase 1, n = 43): 24 patients
- Clinical benefit rate ([2]; phase 1, patients with AML (3/7)): 42.9%
- Clinical benefit rate ([2]; phase 1, patients with MF (34/36)): 94.4%
